Data from PubChem BioAssay AID1918955 (Molecular Pharmacology Branch, DTP, NCI, 2023).
“And” between values parts separate entries of the source, which are not always exact repeats. Equal entries are not always repeated.

System: NCI/ADR-RES complex spheroid viability
Test: Anticancer human tumor NCI/ADR-RES cell line growth inhibition;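 note: spheroids exposed to compounds for 7 days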;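 for viability, T/C: 100% = DMSO vehicle treated spheroids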
Conditions: for viability, T/C: stronger effect = lower value
Text: Multicellular complex tumor spheroid response to LSD1 Inhibitor Iadademstat in combination with a variety of drugs and investigational agents in selected tumor cell lines
The current study was undertaken to assess response to LSD1 inhibitors in combination with standard-of-care drugs and investigational agents in solid tumor complex spheroid models as well as in the K-562 leukemia. Complex spheroids include a stromal component modeled by human endothelial cells (HUVEC) and fibroblasts modeled by human mesenchymal stem cells (MSCs). The concentration ranges selected for each drug and investigational agent were based upon clinically achievable concentrations if the clinical Cmax of the agent was known.
Compounds. The drugs and investigational agents used in this study are listed on Table 1. All of the agents used, including staurosporine (NSC755774) and gemcitabine (NSC613327), were obtained from the Developmental Therapeutics Program, NCI. FDA-approved anticancer drugs are available from the NCI at http://dtp.nci.nih.gov/branches/dscb/oncology_drugset_explanation.html. Drugs and investigational agents were >95% pure by proton nuclear magnetic resonance (NMR) and liquid chromatography/mass spectrometry (LC/MS). Stock solutions were prepared at 400x in DMSO, stored at -70 degrees C, and diluted in fresh medium prior to their use. The final concentration of DMSO in cell culture wells never exceeded 0.25% (v/v). The FDA-approved anticancer drug set is available from the Developmental Therapeutics Program at https://dtp.cancer.gov/organization/dscb/obtaining/available_plates.htm. All drugs and investigational agents were tested over a range starting from a high concentration at or near the clinical Cmax and decreasing in half-log increments. If the clinical Cmax for an agent had not been determined, the highest concentration tested was 10 microM.
Cell Lines. The patient-derived cancer cell (PDC) lines: 292921-168-R-J2-PDC, K24384-001-R-PDC, and 521955-158-R2-J5-PDC pancreatic carcinomas, 556581-035-R-J1 ovarian carcinoma, 324938-238-R-J1-PDC, 855422-203-R-J1-PDC and 883617-216-R-J1-PDC urothelial bladder carcinomas, 743489-274-T-PDC renal cell carcinoma, 138582-R-J1 Merkel cell tumor, K60290-347-R-J1 and K57222-313-R-J1-PDC glioblastomas, 653999-131-R-J2-PDC, LG0703-F948-PDC, and 349418-098-R-PDC non-small cell lung carcinomas, 885512-296-R-J2-PDC, 171881-019-R-J1-PDC breast carcinomas and 186277-243-T-J2-PDC and 233499-124-R-J2-PDC colon carcinomas were obtained from the NCI Patient-Derived Models Repository (PDMR, https://pdmr.cancer.gov). The established cell lines NCI/ADR-RES (RRID:CVCL_14520 and OVCAR-5 (RRID:CVCL_1628) ovarian carcinomas, 786-O (RRID:CVCL_1051) and A498 (RRID:CVCL_A498) renal cell carcinoma, NCI-H211 (ATCC, cat. CRL-5824; RRID:CVCL_1529), NCI-H196 (ATCC, cat. CRL-5823, RRID:CVCL_1509), SW 1271 (ATCC, cat. CRL-2177, RRID:CVCL_1716) and NCI-H1876 (ATCC, cat. CRL-5902, RRID:CVCL_1503) small cell lung carcinomas, MDA-MB-231 (RRID:CVCL_0062) and MDA-MB-468 (RRID:CVCL_0419)breast carcinomas (10-12). Pooled donor human umbilical vein endothelial cells (HUVEC, Lonza, cat. CC-2519) and human mesenchymal stem cells (hMSC, Lonza, cat. PT-2501) were purchased from Lonza (Walkersville, MD).
Cell Culture. All cells were maintained in an incubator at 37 degrees C and 5% CO2 with 95% humidity. The PDC lines were cultured according to standard operating procedures established by the NCI PDMR (https://pdmr.cancer.gov). Briefly all PDCs were thawed and cultured in Matrigel-coated flasks prepared with a working solution of 1X Ham's F-12 nutrient mix, without supplementation (Invitrogen, Waltham, MA, cat. 11765054), 100 U/mL penicillin-streptomycin (Invitrogen, cat. 15140122), and 2.5% Matrigel (Corning Inc., Corning, NY, cat. 354248) for the first three passages. […]

[1] = curve of first compound, second compound 0.1 µM
[2] = curve of first compound, second compound 0.316 µM
[3] = curve of first compound, second compound 1 µM
[4] = curve of first compound, second compound 3.16 µM
[5] = curve of first compound, second compound 10 µM
[6] = second compound 0.1 µM, first compound 0.000949 µM
[7] = second compound 0.1 µM, first compound 0.003 µM
[8] = second compound 0.1 µM, first compound 0.00949 µM
[9] = second compound 0.1 µM, first compound 0.03 µM
[10] = second compound 0.1 µM, first compound 0.0949 µM
[11] = second compound 0.1 µM, first compound 0.3 µM
[12] = second compound 0.316 µM, first compound 0.000949 µM
[13] = second compound 0.316 µM, first compound 0.003 µM
[14] = second compound 0.316 µM, first compound 0.00949 µM
[15] = second compound 0.316 µM, first compound 0.03 µM
[16] = second compound 0.316 µM, first compound 0.0949 µM
[17] = second compound 0.316 µM, first compound 0.3 µM
[18] = second compound 1 µM, first compound 0.000949 µM
[19] = second compound 1 µM, first compound 0.003 µM
[20] = second compound 1 µM, first compound 0.00949 µM
[21] = second compound 1 µM, first compound 0.03 µM
[22] = second compound 1 µM, first compound 0.0949 µM
[23] = second compound 1 µM, first compound 0.3 µM
[24] = second compound 3.16 µM, first compound 0.000949 µM
[25] = second compound 3.16 µM, first compound 0.003 µM
[26] = second compound 3.16 µM, first compound 0.00949 µM
[27] = second compound 3.16 µM, first compound 0.03 µM
[28] = second compound 3.16 µM, first compound 0.0949 µM
[29] = second compound 3.16 µM, first compound 0.3 µM
[30] = second compound 10 µM, first compound 0.000949 µM
[31] = second compound 10 µM, first compound 0.003 µM
[32] = second compound 10 µM, first compound 0.00949 µM
[33] = second compound 10 µM, first compound 0.03 µM
[34] = second compound 10 µM, first compound 0.0949 µM
[35] = second compound 10 µM, first compound 0.3 µM

`CCc1c2c(nc3ccc(O)cc13)-c1cc3c(c(=O)n1C2)COC(=O)[C@]3(O)CC` + NC1CC1c1ccc(-c2cccc(O)c2)cc1 showed an IC50 [1] of less than 0.949 nM, an IC50 [2] of less than 0.949 nM and an IC50 [3] of less than 0.949 nM. It also gave an IC50 [4] of less than 0.949 nM, an IC50 [5] of less than 0.949 nM and a viability, T/C [6] of 3.8%. The viability, T/C [7] was 1.6%, the viability, T/C [8] was 0.64% and the viability, T/C [9] was 0.32%. It also gave a viability, T/C [10] of 0.23%, a viability, T/C [11] of 0.59% and a viability, T/C [12] of 3.44%. The viability, T/C [13] was 1.85%, the viability, T/C [14] was 0.73% and the viability, T/C [15] was 0.21%. The viability, T/C [16] was 0.3%, the viability, T/C [17] was 0.38% and the viability, T/C [18] was 4.73%. It also gave a viability, T/C [19] of 3.11%, a viability, T/C [20] of 0.96% and a viability, T/C [21] of 0.37%. The viability, T/C [22] was 0.24%, the viability, T/C [23] was 0.51% and the viability, T/C [24] was 8.34%. For the same compound, the viability, T/C [25] was 2.9%, the viability, T/C [26] was 1.29% and the viability, T/C [27] was 0.29%. It also gave a viability, T/C [28] of 0.18%, a viability, T/C [29] of 0.31% and a viability, T/C [30] of 20.9%. It also gave a viability, T/C [31] of 3.67%, a viability, T/C [32] of 1.58% and a viability, T/C [33] of 0.59%. It also gave a viability, T/C [34] of 0.26% and a viability, T/C [35] of 0.3%.

Work on `CC1(C)CCC(CN2CCN(c3ccc(C(=O)NS(=O)(=O)c4ccc(NCC5CCOCC5)c([N+](=O)[O-])c4)c(Oc4cnc5[nH]ccc5c4)c3)CC2)=C(c2ccc(Cl)cc2)C1` + NC1CCC(NC2CC2c2ccccc2)CC1 yielded an IC50 [1] greater than 10000 nM, an IC50 [2] greater than 10000 nM and an IC50 [3] greater than 10000 nM. The IC50 [4] was greater than 10000 nM, the IC50 [5] was greater than 10000 nM and the viability, T/C (second compound 0.1 µM, first compound 0.0316 µM) was 98.7%. The viability, T/C (second compound 0.1 µM, first compound 0.1 µM) was 101%, the viability, T/C (second compound 0.1 µM, first compound 0.316 µM) was 93.5% and the viability, T/C (second compound 0.1 µM, first compound 1 µM) was 103%. It also gave a viability, T/C (second compound 0.1 µM, first compound 3.16 µM) of 96.8%, a viability, T/C (second compound 0.1 µM, first compound 10 µM) of 91.3% and a viability, T/C (second compound 0.316 µM, first compound 0.0316 µM) of 91.8%. For the same compound, the viability, T/C (second compound 0.316 µM, first compound 0.1 µM) was 103%, the viability, T/C (second compound 0.316 µM, first compound 0.316 µM) was 99.2% and the viability, T/C (second compound 0.316 µM, first compound 1 µM) was 104%. It also gave a viability, T/C (second compound 0.316 µM, first compound 3.16 µM) of 103%, a viability, T/C (second compound 0.316 µM, first compound 10 µM) of 100% and a viability, T/C (second compound 1 µM, first compound 0.0316 µM) of 97.2%. The viability, T/C (second compound 1 µM, first compound 0.1 µM) was 108%, the viability, T/C (second compound 1 µM, first compound 0.316 µM) was 102% and the viability, T/C (second compound 1 µM, first compound 1 µM) was 114%. It also gave a viability, T/C (second compound 1 µM, first compound 3.16 µM) of 102%, a viability, T/C (second compound 1 µM, first compound 10 µM) of 100% and a viability, T/C (second compound 3.16 µM, first compound 0.0316 µM) of 99.6%. The viability, T/C (second compound 3.16 µM, first compound 0.1 µM) was 104%, the viability, T/C (second compound 3.16 µM, first compound 0.316 µM) was 101% and the viability, T/C (second compound 3.16 µM, first compound 1 µM) was 104%. It also gave a viability, T/C (second compound 3.16 µM, first compound 3.16 µM) of 96.3%, a viability, T/C (second compound 3.16 µM, first compound 10 µM) of 89.9% and a viability, T/C (second compound 10 µM, first compound 0.0316 µM) of 84.5%. For the same compound, the viability, T/C (second compound 10 µM, first compound 0.1 µM) was 90%, the viability, T/C (second compound 10 µM, first compound 0.316 µM) was 105% and the viability, T/C (second compound 10 µM, first compound 1 µM) was 94.5%. For the same compound, the viability, T/C (second compound 10 µM, first compound 3.16 µM) was 94.3% and the viability, T/C (second compound 10 µM, first compound 10 µM) was 85.4%.

`Nc1ncn(C2CC(O)C(CO)S2)c(=O)n1` (stereo unspecified) + NC1CCC(NC2CC2c2ccccc2)CC1 gave an IC50 [1] of 17.5 nM, an IC50 [2] of 12.6 nM and an IC50 [3] of 13.9 nM. The IC50 [4] was 8.87 nM, the IC50 [5] was 6.46 nM and the viability, T/C [6] was 99.2%. For the same compound, the viability, T/C [7] was 76.1%, the viability, T/C [8] was 60.2% and the viability, T/C [9] was 41.5%. The viability, T/C [10] was 25.3%, the viability, T/C [11] was 6.6% and the viability, T/C [12] was 106%. For the same compound, the viability, T/C [13] was 79.3%, the viability, T/C [14] was 56.2% and the viability, T/C [15] was 34%. It also gave a viability, T/C [16] of 17.1%, a viability, T/C [17] of 6.79% and a viability, T/C [18] of 99.9%. For the same compound, the viability, T/C [19] was 80.3%, the viability, T/C [20] was 57% and the viability, T/C [21] was 35%. For the same compound, the viability, T/C [22] was 18.6%, the viability, T/C [23] was 4.76% and the viability, T/C [24] was 102%. For the same compound, the viability, T/C [25] was 66.1%, the viability, T/C [26] was 46.6% and the viability, T/C [27] was 37.1%. It also gave a viability, T/C [28] of 17.7%, a viability, T/C [29] of 4.6% and a viability, T/C [30] of 85.1%. The viability, T/C [31] was 57.3%, the viability, T/C [32] was 43.7% and the viability, T/C [33] was 31%. For the same compound, the viability, T/C [34] was 13.9% and the viability, T/C [35] was 3.33%.

With `NC1CCC(NC2CC2c2ccccc2)CC1` (stereo unspecified) the viability, T/C (compound 0.1 µM) was 104% [middle of 25 runs], the viability, T/C (compound 0.316 µM) was 110% and 108% (2×) and the viability, T/C (compound 1 µM) was 102% [middle of 24 runs]. The viability, T/C (compound 3.16 µM) was 99.8% [middle of 25 runs], the viability, T/C (compound 10 µM) was 91.5% [middle of 23 runs] and the IC50 (compound alone, run of 11/29/2021) was greater than 10000 nM.
